Laboratory results: EP0989125B1, “Pesticidal furylmethyl cyclopropanecarboxylates” (Sumitomo Chemical Company, Limited, priority 1998, dated 2000)

Experiments:
[1] = system: webbing clothes moth (Tineola bisselliella); experiment: Biological test 14: persistence of treated filter paper in cardboard box, webbing clothes moth larvae; format: in vivo; parameters: key to degree of damage: -: no damage; +: slight damage; ++: heavy damage; +++: severe damage; conditions: 36 mg on filter paper
Experimental: A filter paper (3.2 cm × 3.2 cm in size) treated with 36 mg of each of the present compounds and two wool muslin fabrics (25 cm × 25 cm in size) were hung down at the upper part of a corrugated cardboard box (29 cm × 29 cm × 29 cm in size). After standing at 25 °C and a humidity of 60 % for 1 week, two tea-strainer balls holding 7 to 10 middle instar larvae of webbing clothes moth (Tineola bisselliella) and one piece of wool muslin cloth (2 cm × 2 cm in size) were hung down at the upper part of the box. The box was closed with a lid. After one week, the box was opened, and the percent moribund and the degree of damage of the wool muslin cloth by the moths were examined. The same tests was repeated 2 weeks, 3 weeks and 5 weeks after the treatment to examine the persistance of the present compound. The degree of damage was represented by "-" in no damage, " + " in slight damage, " ++ " in heavy damage and "+++ " in severe damage.

rats = conditions: male 7-week old rats, into the stomach in corn oil, after 7 days
Experimental: After subjecting the rats to a twenty-hour fasting, 0.1 ml of the diluted solution per 10g weight was forcibly applied into the stomach of four male 7-week old rats. The rats were given food and water four hours after the application and thereafter regularly fed and watered, and kept in a cage. After 7 days, the mortality was examined for the rats and LD50 was calculated.

[2] = system: common mosquitoes (Culex pipiens pallens); experiment: Biological test 6: mosquito larvae in treated water; format: in vivo; conditions: 3.5 ppm active ingredient in water, last-instar larvae, after one day; 1440 min
Experimental: 0.7 ml of aqueous emulsion, obtained by diluting emulsifiable concentrate prepared for each of the present compounds according to the formulation example 1 was added to 100 ml of ion-exchanged water (concentration of active ingredient : 3.5 ppm). Twenty last-instar larvae of common mosquitoes (Culex pipiens pallens) were left in the water. After one day, the mortality of the common mosquitoes was examined.

[3] = system: common mosquitoes (Culex pipiens pallens); experiment: Biological test 11: vapour exposure over treated aluminum plate, mosquitoes; format: in vivo; conditions: 0.64 ml of 0.05 (w/v) % acetone solution, no direct contact, 25 °C for 120 minutes, after 24 hours
Experimental: (§1) After 0.64 ml of a 0.05 (w/v) % acetone solution of the present compounds was dropped into an aluminum plate (bottom diameter : 7 cm), acetone was air-dried. Ten female common mosquitoes (Culex pipiens pallens) were left in a polyethylene cup (diameter : 9 cm; depth : 4.5 cm) and the cup was sealed with a 16-mesh nylon net to prevent direct contact of the mosquitoes with the compound. The cup was placed upside down on the aluminum plate at 25 °C for 120 minutes. The cup was then removed from the aluminum plate, and water and feed were given to the mosquitoes. After 24 hours, the mortality was examined (two replicate).

[4] = system: houseflies (Musca domestica); experiment: Biological test 4: treated filter paper with sucrose bait, houseflies low sensitive to pyrethroids; conditions: 500 ppm aqueous emulsion, female houseflies low sensitive to pyrethroids, after one day; 1440 min
[5] = system: houseflies (Musca domestica); experiment: Biological test 9: topical application of acetone solution to houseflies; format: in vivo; conditions: 5 µg / one housefly, after 24 hours
Experimental: After 24 hours, the percent moribund was examined (two replicate).

[6] = system: tobacco cutworm (Spodoptera litura); experiment: Biological test 1: artificial bait impregnated with emulsion; conditions: 500 ppm emulsion, 4-instar larvae, after 6 days
[7] = system: webbing clothes moth (Tineola bisselliella); experiment: Biological test 12: topical application to webbing clothes moth larvae; format: in vivo; conditions: 3 µg / insect, after 7 days
Experimental: Each of the present compounds diluted with acetone to a predetermined concentration was applied to ten middle instar larvae of webbing clothes moth (Tineola bisselliella) at the central part of the back so as to give the active ingredient in a dose of 3 µg / insect. A wool muslin fabric (2 cm × 2 cm in size) was given to the webbing clothes moths as the food. After 7 days, the mortality and the degree of damage of the wool muslin fabric by the moths were examined (two replicate).

[8] = system: common mosquitoes (Culex pipiens pallens); experiment: Biological test 8: mosquito-coil in glass chamber, knock-down; format: in vivo; conditions: 1.0 g of 0.3 % mosquito-coil, 0.34 m^3 chamber, after 15 minutes
Experimental: Mosquito-coil containing the present compound in an amount of 0.3 % was prepared according to the formulation example 10 for the present compounds. Ten female common mosquitoes (Culex pipiens pallens) were left in a glass chamber (70 cm × 70 cm × 70 cm : 0.34 m^3) and 1.0 g of 0.3 % mosquito-coil having both ends lit was placed in the glass chamber. After 15 minutes, the rate of knocked-down mosquitoes was examined.

[9] = system: southern corn rootworm (Diabrotica undecimpunctata howardi); experiment: Biological test 3: treated filter paper with eggs and sprouting corn; conditions: 50 ppm aqueous emulsion, after 8 days
[10] = system: German cockroaches (Blattella germanica); experiment: Biological test 5: treated filter paper with sucrose bait, cockroaches low sensitive to pyrethroids; conditions: 500 ppm aqueous emulsion, male cockroaches low sensitive to pyrethroids, after six days; 8640 min
[11] = system: webbing clothes moth (Tineola bisselliella); experiment: Biological test 13: volatile agent hung in cup with webbing clothes moth larvae; format: in vivo; conditions: volatile agent (100 µg on filter paper), 25 °C for 1 week; for mortality: 10080 min
Experimental: A wool muslin fabric (2 cm × 2 cm in size) was placed on the bottom of a polyethylene cup (bottom diameter : 10 cm, opening part diameter : 12.5 cm, height : 9.5 cm, volume : 950 cm^3 ). Ten middle instar larvae of webbing clothes moth (Tineola bisselliella) were put in the cup and each of the volatile agents prepared according to the formulation example 14 was hung from the cap in the interior of the cup. After standing at 25 °C for 1 week, the cup was opened, and the mortality and the degree of damage of the wool muslin fabric by the moths were examined (two replicate).

[12] = system: houseflies (Musca domestica); experiment: Biological test 10: vapour exposure over treated aluminum plate, houseflies; format: in vivo; conditions: 0.64 ml of 0.05 (w/v) % acetone solution, no direct contact, 25 °C for 120 minutes, after 24 hours
Experimental: as §1, with “houseflies (Musca domestica)” for “common mosquitoes (Culex pipiens pallens)”, “houseflies” for “mosquitoes”, “houseflies.” for “mosquitoes.”, “percent moribund” for “mortality”

[13] = system: common mosquitoes (Culex pipiens pallens); experiment: Biological test 7: oil solution sprayed in glass chamber, knock-down; format: in vivo; conditions: 0.7 ml of 0.1 % oil solution sprayed, 0.34 m^3 chamber, after 15 minutes
Experimental: Ten female common mosquitoes (Culex pipiens pallens) were left in a glass chamber (70 cm × 70 cm × 70 cm : 0.34 m^3). 0.7 ml of 0.1 % oil solution prepared for each of the present compounds according to the formulation example 7 was sprayed with a spray gun at 0.8 atmospheric pressure. After 15 minutes, the rate of knocked-down mosquitoes was examined.

[14] = system: brown planthopper (Nilaparvata lugens); experiment: Biological test 2: rice plant stalk dipped in emulsion; format: in vivo; conditions: 500 ppm aqueous emulsion, larvae, after 6 days
Experimental: A stalk of a rice plant was dipped for one minute in a 500 ppm aqueous emulsion obtained by diluting each emulsifiable concentrate of the present compounds prepared according to the formulation example 1. The rice plant stalk was air-dried and placed in a polyethylene cup (diameter : 5.5 cm) where filter paper (diameter : 5.5 cm) impregnated with 1 ml of water was put. Approximately 30 larvae of brown planthopper (Nilaparvata lugens) were put in the polyethylene cup. After 6 days, the mortality of the larvae was examined.

SMILES	degree of damage ([1]; After 1 week)	percent moribund ([1]; After 1 week) [%]	degree of damage ([1]; After 2 weeks)	percent moribund ([1]; After 2 weeks) [%]	degree of damage ([1]; After 3 weeks)	percent moribund ([1]; After 3 weeks) [%]	degree of damage ([1]; After 5 weeks)	percent moribund ([1]; After 5 weeks) [%]	mortality [2] [%]	mortality [3] [%]	mortality [4] [%]	percent moribund [5] [%]	mortality [6] [%]	degree of damage of the wool muslin fabric [7]	mortality [7] [%]	rate of knocked-down mosquitoes [8] [%]	mortality of the hatched larvae and eggs [9] [%]	mortality [10] [%]	degree of damage of the wool muslin fabric [11]	mortality [11] [%]	other results
CC1(C)C(/C=C(\Cl)C(F)(F)F)C1C(=O)OCc1ccc(C(F)F)o1 (centres unmarked) [B, reference compound]	+++	50	+++	33	+++	53	+++	42													
C#CCc1ccc(COC(=O)C2C(/C=C(\Cl)C(F)(F)F)C2(C)C)o1 (centres unmarked) [C, reference compound]	+++	7	+++	63	+++	20	+++	37													LD50 (rats): less than 100 mg/kg
CC1(C)C(/C=C(\Cl)C(F)(F)F)C1C(=O)OCc1coc(Cc2ccccc2)c1 (centres unmarked) [A, reference compound]	+++	0	+++	0	+++	5	+++	5													LD50 (rats): less than 50 mg/kg
CCc1ccc(COC(=O)[C@@H]2[C@H](/C=C(\Cl)C(F)(F)F)C2(C)C)o1 (racemic) [present compound (2), 5-ethyl-2-furfuryl (1RS,cis)-3-(Z-2-chloro-3,3,3-trifluoroprop-1-enyl)-2,2-dimethylcyclopropanecarboxylate]	-	100	-	100	-	100	-	100	≥ 90	100	100	100	100	no damage	100	100	100	100	no damage	100	percent moribund [12]: 100%; rate of knocked-down mosquitoes [13]: ≥ 90%; mortality [14]: ≥ 90%
CCCc1ccc(COC(=O)[C@@H]2[C@H](/C=C(\Cl)C(F)(F)F)C2(C)C)o1 (racemic) [present compound (3), 5-propyl-2-furfuryl (1RS,cis)-3-(Z-2-chloro-3,3,3-trifluoroprop-1-enyl)-2,2-dimethylcyclopropanecarboxylate]	-	100	-	100	-	100	-	100	≥ 90	100	100	100	100	no damage	100	100	100	100	no damage	100	percent moribund [12]: 100%; rate of knocked-down mosquitoes [13]: ≥ 90%; mortality [14]: ≥ 90%
C=CCc1ccc(COC(=O)[C@@H]2[C@H](/C=C(\Cl)C(F)(F)F)C2(C)C)o1 (racemic) [present compound (4), 5-allyl-2-furfuryl (1RS,cis)-3-(Z-2-chloro-3,3,3-trifluoroprop-1-enyl)-2,2-dimethylcyclopropanecarboxylate]	-	100	-	100	-	100	-	100	≥ 90	100	100	100	100	no damage	100	100	100	100	no damage	100	percent moribund [12]: 100%; rate of knocked-down mosquitoes [13]: ≥ 90%; mortality [14]: ≥ 90%
